In patent publication US4122204A, “N-(4-tert-butylphenylthiosulfenyl)-N-alkyl aryl carbamate compounds” (priority 1976, dated 1978):
Values after ≈ are worked out from the molar mass of the structure shown. Like-named read-outs stand apart in the source and are kept apart here.

Legend:
in vivo = conditions: rat, in vivo, po
Protocol: (§1) These compounds were also evaluated to determine their peroral toxicity to mammals by conventional methods. The animal selected for this experiment was the rat.
(§2) The toxicity is reported in […] required for a 50% kill (LD50).

rat = assay: in vivo; conditions: for mammalian toxicity (in words): rat, in vivo
Protocol: as §1, §2

important economic crops = assay: Phytotoxicity against important economic crops
[1] = tested on: Mexican bean beetle (Epilachna varivestis, Muls.); assay: Mexican Bean Beetle Leaf Spray Test; assay type: in vivo; conditions: for LC50: Epilachna varivestis, 72 h, read-out: Mexican Bean Beetle LD50
Protocol: (§3) Suspensions of the test compounds were prepared by dissolving one gram of compound in 50 milliliters of acetone in which had been dissolved 0.1 gram (10 percent of the weight of compound) of an alkylphenoxy polyethoxyethanol surfactant, as an emulsifying or dispersing agent. The resulting solution was mixed into 150 milliliters of water to give roughly 200 milliliters of a suspension containing the compound in finely divided form. The thus-prepared stock suspension contained 0.5 percent by weight of test compound. The test concentration in parts per million by weight employed in the tests described hereinbelow were obtained by appropriate dilutions of the stock suspension with water. The test procedures were as follows:
Fourth instar larvae of the Mexican bean beetle (Epilachna varivestis, Muls.), reared on Tendergreen bean plants at a temperature of 80°±5° F. and 50±5 percent relative humidity, were the test insects.
The test compounds were formulated by diluting the stock suspension with water to give a suspension containing 500 parts of test compound per million parts of final formulation. Potted Tendergreen bean plants of standard height and age were placed on a revolving turntable and sprayed with 100-110 milliliters of test compound formulation by use of a DeVilbiss spray gun set at 10 psig air pressure. This application, which lasted 25 seconds, was sufficient to wet plants to run-off. As a control, 100-110 milliliters of a water-acetone-emulsifier solution containing no test compound were also sprayed on infested plants. When dry, the paired leaves were separated and each was placed in a 9 centimeter Petri dish lined with moistened filter paper. Five randomly selected larvae were introduced into each dish, and the dishes were closed. The closed dishes were labeled and held at a temperature of 80°±5° F. for three days. Although the larvae could easily consume the leaf within 24 to 48 hours, no more food was added. Larvae which were unable to move the length of the body, even upon stimulation, were considered dead.

[2] = tested on: bean aphid (Aphis fabae Scop.); assay: Bean Aphid Foliage Spray Test; assay type: in vivo; conditions: for LC50: Aphis fabae, foliar, read-out: Aphid LD50
Protocol: as §3
Adults and nymphal stages of the bean aphid (Aphis fabae Scop.) reared on potted dwarf nasturtium plants at 65°-70° F. and 50-70 percent relative humidity, constituted the test insects. For testing purposes, the number of aphids per pot was standardized to 100-150 by trimming plants containing excess aphids.
The test compounds were formulated by diluting the stock suspension with water to give a suspension containing 500 parts of test compound per million parts of final formulation.
The potted plants (one pot per compound tested) infested with 100-150 aphids, were placed on a revolving turntable and sprayed with 100-110 milliliters of test compound formulation by use of a DeVilbiss spray gun set at 40 psig. air pressure. This application, which lasted 25 seconds, was sufficient to wet the plants to run-off. As a control, 100-110 milliliters of a water-acetone-emulsifier solution containing no test compound were also sprayed on infested plants. After spraying, the pots were placed on their sides on a sheet of white standard mimeograph paper which had been previously ruled to facilitate counting. Temperature and humidity in the test room during the 24 hour holding period were 65°-70° F. and 50-70 percent, respectively. Aphids which fell onto the paper and were unable to remain standing after being uprighted were considered dead. Aphids remaining on the plants were observed closely for movement and those which were unable to move the length of the body upon stimulation by prodding were considered dead. Percent mortality was recorded for various concentration levels.

[3] = tested on: southern armyworm (Prodenia eridania, (Cram.)); assay: Southern Armyworm Leaf Spray Test; assay type: in vivo; conditions: for LC50: Spodoptera eridania, 72 h, read-out: Southern Armyworm LD50
Protocol: as §3
Larvae of the southern armyworm (Prodenia eridania, (Cram.)), reared on Tendergreen bean plants at a temperature of 80°±5° F. and a relative humidity of 50±5 percent, constituted the test insects.
The test compounds were formulated by diluting the stock suspension with water to give a suspension containing 500 parts of test compound per million parts of final formulation. Potted Tendergreen bean plants of standard height and age were placed on a revolving turntable and sprayed with 100-110 milliliters of test compound formulation by use of a DeVilbiss spray gun set at 10 psig air pressure. This application, which lasted 25 seconds, was sufficient to wet plants to run-off. As a control, 100-110 milliliters of a water-acetone-emulsifier solution containing no test compound were also sprayed on infested plants. When dry, the paired leaves were separated and each one was placed in a 9 centimeter Petri dish lined with moistened filter paper. Five randomly selected larvae were introduced into each dish and the dishes were closed. The closed dishes were labeled and held at 80-85° F. for three days. Although the larvae could easily consume the whole leaf within twenty-four hours, no more food was added. Larvae which were unable to move the length of the body, even upon stimulation by prodding, were considered dead. Percent mortality was recorded for various concentration levels.

[4] = tested on: house flies (Musca domestica, L.); assay: Fly Bait Test; assay type: in vivo; conditions: 24 h, read-out: House Fly LD50
Protocol: as §3
Four to six day old adult house flies (Musca domestica, L.), reared according to the specifications of the Chemical Specialities Manufacturing Association (Blue Book, McNair-Dorland Co., N.Y. 1954; pages 243-244, 261) under controlled conditions of 80°±5° F. and 50±5 percent relative humidity, were the test insects. The flies were immobilized by anesthetizing with carbon dioxide and twenty five immobilized individuals, males and females, were transferred to a cage consisting of a standard food strainer about five inches in diameter which was inverted over a wrapping-papercovered surface. The test compounds were formulated by diluting the stock suspension with a 10 percent (by weight) sugar solution to give a suspension containing 500 parts of test compound per million parts of final formulation, by weight. Ten milliliters of the test formulation were added to a souffle cup containing a one-inch square of an absorbent cotton pad. This bait cup was introduced and centered on the blotting paper under the food strainer prior to admitting the anesthetized flies. The caged flies were allowed to feed on the bait for twenty four hours, at a temperature of 80°±5° F. and the relative humidity of 50±5 percent.

[5] = tested on: two-spotted mite (Tetranychus urticae Koch); assay: Mite Foliage Spray Test; assay type: in vivo; conditions: foliar, 144 h, read-out: Mite LD50
Protocol: as §3
Adults and numphal stages of the two-spotted mite (Tetranychus urticae Koch), reared on Tendergreen bean plants at 80±5 percent relative humidity, were the test organisms. Infested leaves from a stock culture were placed on the primary leaves of two bean plants six to eight inches in height, growing in a two-and-a-half inch clay pot. 150-200 Mites, a sufficient number for testing, transferred from the excised leaves to the fresh plants in a period of twenty four hours. Following the twenty four hour transfer period, the excised leaves were removed from the infested plants. The test compounds were formulated by diluting the stock suspension with water to give a suspension containing 500 parts of test compound per million parts of final formulation. The potted plants (one pot per compound) were placed on a revolving turntable and sprayed with 100-110 milliliters of test compound formulation by use of a DeVilbiss spray gun set at 40 psig. air pressure. This application, which lasted 25 seconds, was sufficient to wet the plants to run-off. As a control, 100-110 milliliters of a water solution containing acetone and emulsifier in the same concentrations as the test compound formulation, but containing no test compound, were also sprayed on infested plants. The sprayed plants were held at 80±5 percent relative humidity for six days, after which a mortality countr of motile forms was made. Microscopic examination for motile forms was made on the leaves of the test plants. Any individual which was capable of locomotion upon prodding was considered living.

mites and insects = assay: Pesticidal activity against mites and insects (general statement); conditions: in vivo
Protocol: Selected species of the new compounds were evaluated in comparison with known similar prior art compounds to determine their pesticidal activity against mites and certain insects, including an aphid, a caterpillar, a beetle and a fly. The new compounds were further evaluated for mammalian toxicity.

[6] = LD50 value (mammalian toxicity), peroral, unit inferred
[7] = Rat LD50, peroral, dose for mortality rate of 50 percent
[8] = leaf spray, ppm required for 50% kill, three days
[9] = foliage spray, ppm required for 50% kill, 24 hour holding period
[10] = bait test, ppm required for 50% kill, twenty four hours
[11] = foliage spray, ppm required for 50% kill, six days

Row | Structure (SMILES) | LD50 (in vivo; [6]) [mg/kg] | LD50 (in vivo; [7]) [mg/kg] | times less toxic to mammals than parent compound (compound 1) (rat; rat LD50 ratio vs compound 1) | times less toxic to mammals than 4-methylphenylthiosulfenyl derivative (compound 2) (rat; rat LD50 ratio vs compound 2) | mammalian toxicity (in words) (rat) | phytotoxicity (in words) (important economic crops) | LC50 [1] [µg/mL] | insecticidal activity against bean beetle (in words) ([1]; in vivo) | LC50 ([2]; 24 h) [µg/mL] | insecticidal activity against aphid (in words) ([2]; in vivo) | LC50 [3] [µg/mL] | insecticidal activity against south armyworm (in words) ([3]; in vivo) | LC50 [4] [µg/mL] | LC50 [5] [µg/mL] | LC50 [1, 8] [µg/mL] | LC50 [2, 9] [µg/mL] | LC50 [3, 8] [µg/mL] | LC50 [4, 10] [µg/mL] | LC50 [5, 11] [µg/mL] | pesticidal activity against mites and insects (in words) (mites and insects)
1 | CN(SSc1ccc(C(C)(C)C)cc1)C(=O)Oc1cccc2c1OC(C)(C)C2 [Compound 3, 2,2-Dimethyl-2,3-dihydro-7-[N-methyl-N-(4-tert-butylphenylthiosulfenyl)carbamoyloxy] benzofuran] | 453 | 453 | at least 38 times | at least 23 times | extremely low mammalian toxicity | low phytotoxicity | 5 (≈ 12 µM) | exceptionally high level of insecticidal activity | 3 (≈ 7.18 µM) | exceptionally high level of insecticidal activity | 40 (≈ 95.8 µM) | exceptionally high level of insecticidal activity | < 17 | > 500 |  |  |  |  |  | 
2 | CNC(=O)Oc1ccccc1OC(C)C [Compound 5, 2-Isopropoxy-(N-methyl-carbamoyloxy)benzene] | 95 to 104 | 95 to 104 |  |  |  |  |  |  |  |  |  |  |  |  | 12 (≈ 57.3 µM) | 16 (≈ 76.5 µM) | 500 (≈ 2390 µM) | 16 (≈ 76.5 µM) | > 500 | 
3 | CNC(=O)Oc1cccc2c1OC(C)(C)C2 [Compound 1, 2,2-Dimethyl-2,3-dihydro-7-(N-methylcarbamoyloxy)benzofuran] | 8 to 14 | 8 to 14 |  |  | unacceptable levels of mammaliam toxicity |  |  |  |  |  |  |  |  |  | 12 (≈ 54.2 µM) | 2 (≈ 9.04 µM) | 90 (≈ 407 µM) | 12 (≈ 54.2 µM) | 175 (≈ 791 µM) | 
4 | CC(C)Oc1ccccc1OC(=O)N(C)SSc1ccc(C(C)(C)C)cc1 [Compound 4, 2-Isopropoxy-[N-methyl-N-(4-tert-butylphenylthiosulfenyl)carbamoyloxy]benzene] | > 640 | 640 |  |  | very low level of mammalian toxicity | extremely low phytotoxicity | 11 (≈ 27.1 µM) |  | 22 (≈ 54.2 µM) |  | 250 (≈ 616 µM) |  | 110 (≈ 271 µM) | > 500 |  |  |  |  |  | 
5 | Cc1ccc(SSN(C)C(=O)Oc2cccc3c2OC(C)(C)C3)cc1 [Compound 2, 2,2-Dimethyl-2,3-dihydro-7-[N-methyl-N-(4-methylphenyl-thiosulfenyl)carbamoyloxy]benzofuran] | 20 | 20 |  |  |  |  | 4 (≈ 10.7 µM) |  | 1.4 (≈ 3.73 µM) |  | ~25 (≈ 66.6 µM) |  | 21 (≈ 55.9 µM) | 130 (≈ 346 µM) |  |  |  |  |  | levels generally comparable to those of the parent compounds
